# Experimental data reported in patent US6770596B1, “Fused tricyclic compounds, process for their preparation, and herbicidal compositions containing them” (Ishihara Sangyo Kaisha Ltd., priority 2002, dated 2004).
# Key:
# Type in all cases: in vivo
# [1] = tested on: field corn (Zea mays L., var. Dekalb 535, CORN); test: Post-emerge test, crop damage field corn; conditions: post-emerge, 250 g ai/ha, 14 days after application, rating scale 0-100 (0 no damage, 100 complete death)
# Method in brief: (§1)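 A greenhouse foliar screen: the compound was applied over the top of 2-3 leaf plants by a flat-fan track sprayer at 8 to 1000 g ai/ha. It was delivered in acetone at 187 l/ha, with 0.25% v/v non-ionic surfactant added for leaf wetting. Injury was judged 14 days on, from 0 (none) to 100 (complete kill).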
# [2] = tested on: cocklebur (Xanthium strumariunt, XAS); test: Pre-emerge test, cocklebur; conditions: 250 g ai/ha, 14 days after application, rating scale 0-100 (0 no damage, 100 complete death)
# Method in brief: (§2)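 Read-out is a visual 0–100 phytotoxicity rating taken 14 days after treatment, where 100 means all plants dead. Compounds were applied pre-emergence in acetone by track sprayer at rates from 8 to 1000 g ai/ha onto pots sown the previous day.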
# [3] = tested on: sicklepod (Cassia obtusifolia, CAO); test: Pre-emerge test, sicklepod; conditions: 250 g ai/ha, 14 days after application, rating scale 0-100 (0 no damage, 100 complete death)
# Method in brief: as §2
# [4] = tested on: lambsquarters (Chenopodium album, CHA); test: Pre-emerge test, lambsquarters; conditions: 250 g ai/ha, 14 days after application, rating scale 0-100 (0 no damage, 100 complete death)
# Method in brief: as §2
# [5] = tested on: ivyleaf morningglory (Ipomoea hederacea, IPH); test: Post-emerge test, ivyleaf morningglory; conditions: 250 g ai/ha, 14 days after application, rating scale 0-100 (0 no damage, 100 complete death)
# Method in brief: as §1
# [6] = tested on: redroot pigweed (Amaranthus retroflexus, AMR); test: Post-emerge test, redroot pigweed; conditions: 250 g ai/ha, 14 days after application, rating scale 0-100 (0 no damage, 100 complete death)
# Method in brief: as §1
# [7] = tested on: wheat (Triticum aestivum); test: Pre-emerge test, crop damage wheat; conditions: pre-emerge, 250 g ai/ha, 14 days after application, rating scale 0-100 (0 no damage, 100 complete death)
# Method in brief: (§3)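 Scores at 14 days after treatment use a 0–100 scale, where 0 is no damage and 100 is death of all plants. Treatments were acetone solutions sprayed at 8–1000 g ai/ha onto soil sown one day prior.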
# [8] = tested on: velvetleaf (Abutilon theophrasti, ABT); test: Post-emerge test, velvetleaf; conditions: 250 g ai/ha, 14 days after application, rating scale 0-100 (0 no damage, 100 complete death)
# Method in brief: as §1
# [9] = tested on: johnsongrass (Sorghum halepense, SOH); test: Pre-emerge test, johnsongrass; conditions: 250 g ai/ha, 14 days after application, rating scale 0-100 (0 no damage, 100 complete death)
# Method in brief: as §2
# [10] = tested on: lambsquarters (Chenopodium album, CHA); test: Post-emerge test, lambsquarters; conditions: 250 g ai/ha, 14 days after application, rating scale 0-100 (0 no damage, 100 complete death)
# Method in brief: as §1
# [11] = tested on: soybean (Glycine max L., var. Pella 86, SOY); test: Post-emerge test, crop damage soybean; conditions: post-emerge, 250 g ai/ha, 14 days after application, rating scale 0-100 (0 no damage, 100 complete death)
# Method in brief: as §1
# [12] = tested on: green foxtail (Setaria viridis, SEV); test: Post-emerge test, green foxtail; conditions: 250 g ai/ha, 14 days after application, rating scale 0-100 (0 no damage, 100 complete death)
# Method in brief: as §1
# [13] = tested on: upland rice (Oryza sp., var.Tebonnet, RICE); test: Post-emerge test, crop damage upland rice; conditions: post-emerge, 250 g ai/ha, 14 days after application, rating scale 0-100 (0 no damage, 100 complete death)
# Method in brief: as §1
# [14] = tested on: cocklebur (Xanthium strumariunt, XAS); test: Post-emerge test, cocklebur; conditions: 250 g ai/ha, 14 days after application, rating scale 0-100 (0 no damage, 100 complete death)
# Method in brief: as §1
# [15] = tested on: common ragweed (Ambrosia artemisiifolia L., AML); test: Pre-emerge test, common ragweed; conditions: 250 g ai/ha, 14 days after application, rating scale 0-100 (0 no damage, 100 complete death)
# Method in brief: as §2
# [16] = tested on: redroot pigweed (Amaranthus retroflexus, AMR); test: Pre-emerge test, redroot pigweed; conditions: 250 g ai/ha, 14 days after application, rating scale 0-100 (0 no damage, 100 complete death)
# Method in brief: as §2
# [17] = tested on: green foxtail (Setaria viridis, SEV); test: Pre-emerge test, green foxtail; conditions: 250 g ai/ha, 14 days after application, rating scale 0-100 (0 no damage, 100 complete death)
# Method in brief: as §2
# [18] = tested on: barnyardgrass (Echinachloa crus-galli, ECC); test: Pre-emerge test, barnyardgrass; conditions: 250 g ai/ha, 14 days after application, rating scale 0-100 (0 no damage, 100 complete death)
# Method in brief: as §2
# [19] = tested on: johnsongrass (Sorghum halepense, SOH); test: Post-emerge test, johnsongrass; conditions: 250 g ai/ha, 14 days after application, rating scale 0-100 (0 no damage, 100 complete death)
# Method in brief: as §1
# [20] = tested on: sicklepod (Cassia obtusifolia, CAO); test: Post-emerge test, sicklepod; conditions: 250 g ai/ha, 14 days after application, rating scale 0-100 (0 no damage, 100 complete death)
# Method in brief: as §1
# [21] = tested on: soybean (Glycine max L., var. Pella 86, SOY); test: Pre-emerge test, crop damage soybean; conditions: pre-emerge, 250 g ai/ha, 14 days after application, rating scale 0-100 (0 no damage, 100 complete death)
# Method in brief: as §3
# [22] = tested on: ivyleaf morningglory (Ipomoea hederacea, IPH); test: Pre-emerge test, ivyleaf morningglory; conditions: 250 g ai/ha, 14 days after application, rating scale 0-100 (0 no damage, 100 complete death)
# Method in brief: as §2
# [23] = tested on: large crabgrass (Digitaria sanguinalis, DIS); test: Pre-emerge test, large crabgrass; conditions: 250 g ai/ha, 14 days after application, rating scale 0-100 (0 no damage, 100 complete death)
# Method in brief: as §2
# [24] = tested on: upland rice (Oryza sp., var.Tebonnet, RICE); test: Pre-emerge test, crop damage upland rice; conditions: pre-emerge, 250 g ai/ha, 14 days after application, rating scale 0-100 (0 no damage, 100 complete death)
# Method in brief: as §3
# [25] = tested on: velvetleaf (Abutilon theophrasti, ABT); test: Pre-emerge test, velvetleaf; conditions: 250 g ai/ha, 14 days after application, rating scale 0-100 (0 no damage, 100 complete death)
# Method in brief: as §2
# [26] = tested on: large crabgrass (Digitaria sanguinalis, DIS); test: Post-emerge test, large crabgrass; conditions: 250 g ai/ha, 14 days after application, rating scale 0-100 (0 no damage, 100 complete death)
# Method in brief: as §1
# [27] = tested on: common ragweed (Ambrosia artemisiifolia L., AML); test: Post-emerge test, common ragweed; conditions: 250 g ai/ha, 14 days after application, rating scale 0-100 (0 no damage, 100 complete death)
# Method in brief: as §1
# [28] = tested on: wheat (Triticum aestivum); test: Post-emerge test, crop damage wheat; conditions: post-emerge, 250 g ai/ha, 14 days after application, rating scale 0-100 (0 no damage, 100 complete death)
# Method in brief: as §1
# [29] = tested on: field corn (Zea mays L., var. Dekalb 535, CORN); test: Pre-emerge test, crop damage field corn; conditions: pre-emerge, 250 g ai/ha, 14 days after application, rating scale 0-100 (0 no damage, 100 complete death)
# Method in brief: as §3
# [30] = tested on: barnyardgrass (Echinachloa crus-galli, ECC); test: Post-emerge test, barnyardgrass; conditions: 250 g ai/ha, 14 days after application, rating scale 0-100 (0 no damage, 100 complete death)
# Method in brief: as §1
structure (smiles),measurement,setting,value
CC1C(=O)Nc2c(-c3nn(C)c(C(F)(F)F)c3Cl)c(F)cc3c2N1C(=O)C(C)(C)O3 (stereo not drawn) [1-54],Post-emerge crop damage CORN (phytotoxicity rating),[1],0
same,Pre-emerge Herbicidal Activity XAS (phytotoxicity rating),[2],90
same,Pre-emerge Herbicidal Activity CAO (phytotoxicity rating),[3],99
same,Pre-emerge Herbicidal Activity CHA (phytotoxicity rating),[4],100
same,Post-emerge Herbicidal Activity IPH (phytotoxicity rating),[5],60
same,Post-emerge Herbicidal Activity AMR (phytotoxicity rating),[6],80
same,Pre-emerge crop damage WHEAT (phytotoxicity rating),[7],0
same,Post-emerge Herbicidal Activity ABT (phytotoxicity rating),[8],100
same,Pre-emerge Herbicidal Activity SOH (phytotoxicity rating),[9],99
same,Post-emerge Herbicidal Activity CHA (phytotoxicity rating),[10],99
same,Post-emerge crop damage SOY (phytotoxicity rating),[11],45
same,Post-emerge Herbicidal Activity SEV (phytotoxicity rating),[12],65
same,Post-emerge crop damage RICE (phytotoxicity rating),[13],0
same,Post-emerge Herbicidal Activity XAS (phytotoxicity rating),[14],65
same,Pre-emerge Herbicidal Activity AML (phytotoxicity rating),[15],95
same,Pre-emerge Herbicidal Activity AMR (phytotoxicity rating),[16],100
same,Pre-emerge Herbicidal Activity SEV (phytotoxicity rating),[17],98
same,Pre-emerge Herbicidal Activity ECC (phytotoxicity rating),[18],85
same,Post-emerge Herbicidal Activity SOH (phytotoxicity rating),[19],0
same,Post-emerge Herbicidal Activity CAO (phytotoxicity rating),[20],40
same,Pre-emerge crop damage SOY (phytotoxicity rating),[21],55
same,Pre-emerge Herbicidal Activity IPH (phytotoxicity rating),[22],75
same,Pre-emerge Herbicidal Activity DIS (phytotoxicity rating),[23],95
same,Pre-emerge crop damage RICE (phytotoxicity rating),[24],0
same,Pre-emerge Herbicidal Activity ABT (phytotoxicity rating),[25],100
same,Post-emerge Herbicidal Activity DIS (phytotoxicity rating),[26],0
same,Post-emerge Herbicidal Activity AML (phytotoxicity rating),[27],80
same,Post-emerge crop damage WHEAT (phytotoxicity rating),[28],0
same,Pre-emerge crop damage CORN (phytotoxicity rating),[29],55
same,Post-emerge Herbicidal Activity ECC (phytotoxicity rating),[30],0
